Results from US7897401B2, “Control of apoptosis by controlling the propensity of ceramide channel formation” (University of Maryland, College Park, priority 2005, dated 2011).

Experiments:
Type in all cases: biochemical
[1] = test system: ceramide channels in liposomes; test: Liposome carboxyfluorescein release (ceramide channel formation in liposomes); settings: C16-ceramide 80 μg, liposomes 90 μg lipid
Description: The polar extract of soybean phospholipids (Avanti Polar Lipids, Alabaster, Ala.) and cholesterol (Sigma Chemical, St. Louis, Mo.) were mixed in a 93:7 molar ratio in chloroform and dried under nitrogen followed by drying in vacuo overnight. This mixture resembles the lipid content of mammalian mitochondrial outer membranes. Five mg of this mixture were dispersed in 1 mL of 39 mM NaCl, 6 mM DPX (Molecular Probes, Eugene, Oreg.), 1.5 mM carboxyfluorescein (Acros Organics, Geel, Belgium) and subjected to four freeze-thaw/sonication cycles. After extrusion through a 0.2 μm filter (Avanti Polar Lipids) for 13 passes it was run through a gel filtration column equilibrated and eluted with 50 mM NaCl, 10 mM HEPES, 1 mM EDTA, pH 7.0. The liposomes were used within 30 h. Twenty-five microliters of liposomes were dispersed into 2.0 mL of the elution buffer and placed into a quartz fluorescence cuvette. The fluorescence was monitored using a Deltascan Spectrofluorometer (Photon Technology Instruments, West Sussex, UK) using excitation at 495 nm and emission at 520 nm. Forty microliters of C16-ceramide (2 mg/mL of isopropanol) were added while stirring. Sphingosine was added from either a 1 mg/mL or a 0.1 mg/mL solution in DMSO.

[2] = Ability of sphingolipids to form channels in membranes
Text: The present invention establishes that sphingosine is capable of directly disassembling ceramide channels, thus proving the existence of this novel anti-apoptotic regulatory step. The ability of sphingosine, sphingosine-1-phosphate ([…]) and ceramide-1-phosphate the ability to form channels was investigated.

[3] = test system: ceramide channels in the mitochondrial outer membrane (MOM); test: Adenylate kinase release assay in isolated rat liver mitochondria
Description: The preparation yielded a mitochondrial suspension containing 10 mg of protein per mL. […] The mitochondria were then pelleted at 14,000 g for 5 min at 4° C. and the supernatant was kept on ice until assayed. […] The enzymes were added to the rest of the reaction mixture 1 min before the addition of the mitochondrial supernatant to allow a trace of ATP to be consumed. The activity of adenylate kinase was detected as an increase in absorbance at 340 nm. Since the activity of the kinase decays with time, even on ice, experiments were performed in sets and the activity of the first supernatant was assayed again at the end of the set. The values were fitted to a first order decay and all values within the set were corrected for the decay of the activity, based on the time delay before assay.
To determine the effect of sphingosine pretreatment on ceramide permeabilization of the mitochondrial outer membrane, mitochondria were incubated at room temperature in the presence of varying concentrations of sphingosine for […] before addition of ceramide and incubation for 10 min. Untreated mitochondria and mitochondria hypotonically lysed (20 μl into 1.2 ml water) served as negative and positive controls, respectively.
Experiments with C16-ceramide were performed in a similar way except as follows. The mitochondria were suspended in the above medium except that the 1 mM Tris buffer was replaced by 5 mM HEPES. To 1.0 mL of this medium at room temperature (RT) was added 17 μL of mitochondrial suspension that had been kept on ice at a concentration of 4 mg/mL. The final mitochondrial protein concentration during the experiment was 80 μg/mL. In the case of shocked mitochondria, the 1.0 mL of medium was replaced by water. Sphingosine was added, where appropriate, from a 0.25 mg/mL solution in DMSO. Typically 4-7 incubations were run in parallel. All samples were incubated for 5 min at RT. Then some samples received 0.4 mL of fatty acid depleted bovine serum albumin (BSA), 25 mg/mL, followed immediately by 20 μL of C16-ceramide dissolved in isopropanol at 2 mg/mL. After a 10-min incubation at RT, 10 μL of 4 mM PMSF was added followed by centrifugation. In these experiments 0.3 mL of mitochondrial supernatant was added to the adenylate kinase reaction mixture.

[4] = observed in isolated mitochondria and liposome permeability assay

In the case of `CCCCCCCCCCCCC/C=C/[C@@H](O)[C@@H](N)CO` [sphingosine], the “effect of pretreatment on C16-ceramide-induced carboxyfluorescein release from liposomes” value [1] is reported as “biphasic enhancement”, the “ability to form channels” value [2] is reported as “produced real channels” and the “permeabilization of the MOM to adenylate kinase after removal of excess compound with BSA” value ([3]; 2.4 μg/mL for 5 min, then fatty acid depleted BSA, no ceramide added) is reported as “release of adenylate kinase is evident”. For the same compound, the “effect of preincubation on C16-ceramide permeabilization of the MOM and adenylate kinase release” value ([3]; 5 min preincubation, C16-ceramide 40 μg/mL, 10 min, low concentration potentiates, higher inhibits) was “biphasic relationship”, the “sphingosine exposure giving essentially total inhibition of ceramide-dependent adenylate kinase release” value ([3]; 5 min pretreatment, then C2-ceramide 29 μg/mL for 10 min at room temperature, depends on batch of mitochondria) was 0.3 to 0.6 µg/mL and the “release of adenylate kinase by compound alone” value ([3]; no ceramide, concentration range up to 6 μg/mL) was “did not induce the release of adenylate kinase”. The “higher levels that strongly inhibited ceramide channel formation” value [3, 4] was 5 to 10 µM and the “low levels that stimulated ceramide induced permeabilization of the mitochondrial outer membrane to proteins” value [3, 4] was 1 to 2 µM.
